Numbered stars: 1 amine (or outer) side, 2 acyl side, 3 side chain; on linkers, the order of the positions; unused ones are H or OH. Bridge positions count the residues as written; N and C are the ends. Square brackets hold non-standard residues; d marks the D form. Peptide text beside a SMILES is read from it. * marks the point of attachment. X1 = CC[C@H](C)[C@@H](N[*:1])[C@@H](O)CC(=O)O[C@H](C(=O)[C@H](C)C(=O)[*:2])C(C)C; NMeY = CN[C@@H](Cc1ccc(O)cc1)C(=O)O; dNMeL = CN[C@H](CC(C)C)C(=O)O; Pyruvoyl = CC(=O)C(=O)*
Legend:
2-E channels = 2-E channels (Severe acute respiratory syndrome coronavirus 2, UniProt P0DTC4); format: biochemical, SARS-CoV-2
SARS-CoV-2 [1] = settings: in vivo; cited from earlier work
SARS-CoV-2 [2] = settings: in vivo; cited from earlier work; remark: listed apart in the source
SARS-CoV-2 [3] = settings: in vivo; cited from earlier work; remark: listed apart in the source
[4] = test system: 2-E-induced cell death in Vero E6 cells; format: cell-based, African green monkey; settings: read-out: IC50 Cell protection
SARS-CoV-2 [5] = format: cell-based; settings: read-out: IC50 Anti-virus

Chain of 2-E channels (P0DTC4 whole entry, looked up): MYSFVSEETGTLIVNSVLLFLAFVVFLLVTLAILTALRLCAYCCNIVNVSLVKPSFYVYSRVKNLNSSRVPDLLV

In the case of 5-(N, N-hexamethylene)-amiloride [HMA], the “cytotoxicity (in words)” value (Vero E6 cells) is reported as “strong cytotoxicity” and the “concentration with inhibitory activity on 2-E channels” value (2-E channels) is reported as ≥ 50 µM.
With `COC(=O)C1=C(C)NC(C)=C(C(=O)OC)C1c1ccccc1[N+](=O)[O-]` [Nifedipine] the “effects on 2-E channels” value (2-E channels) was “negligible effects”.
For `CC[N+](CC)(CC)CC` [Tetraethylammonium], the “effects on 2-E channels” value (2-E channels) was “negligible effects”.
For `NC1=N[C@H](O)[C@H]2[C@H]3O[C@]4(O)O[C@@H]([C@@H](O)[C@@]2(N1)[C@@H]4O)[C@]3(O)CO` [Tetrodotoxin], the “effects on 2-E channels” value (2-E channels) was “negligible effects”.
In the case of `NC12CC3CC(CC(C3)C1)C2` [amantadine], the “concentration with inhibitory activity on 2-E channels” value (2-E channels) is reported as ≥ 50 µM.
In the case of `CN[C@H]1C(=O)N[C@@H]2Cc3ccc(cc3)Oc3cc4cc(c3O[C@@H]3O[C@H](C(=O)O)[C@@H](O)[C@H](O)[C@H]3NC(=O)CCCCCCCCC(C)C)Oc3ccc(cc3Cl)[C@@H](O)[C@@H]3NC(=O)[C@H](NC(=O)[C@@H]4NC(=O)[C@@H](NC2=O)c2cc(cc(O)c2Cl)Oc2cc1ccc2O)c1ccc(O)c(c1)-c1c(O[C@H]2O[C@H](CO)[C@@H](O)[C@H](O)[C@@H]2O)cc(O)cc1[C@@H](C(=O)NCCCN(C)C)NC3=O` [dalbavancin], the “prophylactic effects on viral replication and lung injuries” value (“prophylactic effects” for short) (SARS-CoV-2 [1]) is listed as “good prophylactic effects”.
For `CCN(CCO)CCCC(C)Nc1ccnc2cc(Cl)ccc12` (stereo not shown) [hydroxychloroquine], the “virus loading or titers in the respiratory tissues” value (SARS-CoV-2 [2]) is listed as “failed to reduce virus loading or titers in the respiratory tissues”.
For `OC(c1cc(C(F)(F)F)nc2c(C(F)(F)F)cccc12)C1CCCCN1` (stereo not shown) [mefloquine], the “prophylactic effects” value (SARS-CoV-2 [1]) is listed as “good prophylactic effects”.
For `CC[C@H](C)[C@H]1NC(=O)[C@@H](NC(=O)[C@@H](CC(C)C)N(C)C(=O)[C@@H]2CCCN2C(=O)C(C)=O)[C@@H](C)OC(=O)[C@H](Cc2ccc(OC)cc2)N(C)C(=O)[C@@H]2CCCN2C(=O)[C@H](CC(C)C)NC(=O)[C@@H](C)C(=O)[C@H](C(C)C)OC(=O)C[C@@H]1O` [plitidepsin] (Pyruvoyl-P[dNMeL]T[X1]LP[NMeY](Me); ester 3-C), the “prophylactic effects” value (SARS-CoV-2 [1]) is given as “good prophylactic effects”.
For `CCC(CC)COC(=O)[C@H](C)N[P@](=O)(OC[C@H]1O[C@@](C#N)(c2ccc3c(N)ncnn23)[C@H](O)[C@@H]1O)Oc1ccccc1` [remdesivir], the “virus loading in the respiratory tract” value (SARS-CoV-2 [3]) is listed as “cannot reduce the virus loading in the respiratory tract”.
Berbamine [BE-12] gave an IC50 [4] of 34.3 µM and an IC50 (SARS-CoV-2 [5]) of 14.5 µM.

Source: PMC8190750 (Cell Research, 2021)
